Here are results for 25 molecules from patent US10568884B2, “Compounds and compositions as protein kinase inhibitors” (Array BioPharma, Inc., priority 2009, dated 2020).

The subject of one series is A375 melanoma cell line (B-Raf V600E). Put plainly: A375 Cellular Proliferation Assay (A375 CP). The series is classed as cell-based. Conditions: Homo sapiens, A-375, 48 h; A375-luc cells, 2 days; read-out: A375 CP IC50. The method, then: A375-luc cells engineered to express luciferase are plated to 384-well white clear bottom plates as 1,500 cells/50 μl/well in DMEM containing 10% FBS. Compounds of the invention dissolved in 100% DMSO at appropriate concentrations are transferred to the cells by a robotic Pin Tool (100 nl). The cells are incubated for 2 days at […], then 25 μl of BrightGlo™ is added to each well and the plates are read by luminescence.
Regarding `COC(=O)N[C@@H](C)CNc1nccc(-c2cn(C(C)C)nc2-c2cc(F)cc(NS(C)(=O)=O)c2F)n1` [Compound 10, methyl N-[(2S)-1-({4-[3-(2,5-difluoro-3-methanesulfonamidophenyl)-1-(propan-2-yl)-1H-pyrazol-4-yl]pyrimidin-2-yl]amino)propan-2-yl]carbamate], the IC50 was 3 nM. On the same count and under the same terms, in the case of `COC(=O)N[C@@H](C)CNc1nccc(-c2cn(C(C)C)nc2-c2cc(C)cc(NS(C)(=O)=O)c2F)n1` [Compound 12, methyl N-[(2S)-1-({4-[3-(2-fluoro-3-methanesulfonamido-5-methylphenyl)-1-(propan-2-yl)-1H-pyrazol-4-yl]pyrimidin-2-yl]amino)propan-2-yl]carbamate] it was 4 nM. As to `COC(=O)N[C@@H](C)CNc1nccc(-c2cn(C(C)C)nc2-c2cc(Cl)cc(NS(=O)(=O)C3CC3)c2F)n1` [Compound 25, methyl N-[(2S)-1-({4-[3-(5-chloro-3-cyclopropanesulfonamido-2-fluorophenyl)-1-(propan-2-yl)-1H-pyrazol-4-yl]pyrimidin-2-yl}amino)propan-2-yl]carbamate], the IC50 came to 2 nM. On the same count and under the same terms, in the case of `CC(C)n1cc(-c2ccnc(N)n2)c(-c2cc(Cl)cc(NS(C)(=O)=O)c2F)n1` [Compound 30, N-{3-[4-(2-aminopyrimidin-4-yl)-1-(propan-2-yl)-1H-pyrazol-3-yl]-5-chloro-2-fluorophenyl}methanesulfonamide] it was 69 nM; in that of `COC(=O)N[C@@H](C)CNc1nccc(-c2cn(C(C)C)nc2-c2cccc(NS(C)(=O)=O)c2)n1` [Compound 23, methyl N-[(2S)-1-({4-[3-(3-methanesulfonamidophenyl)-1-(propan-2-yl)-1H-pyrazol-4-yl]pyrimidin-2-yl}amino)propan-2-yl]carbamate], 1150 nM; in that of `COC(=O)N[C@@H](C)CNc1nccc(-c2cn(C(C)C)nc2-c2cccc(NS(=O)(=O)CCC(F)(F)F)c2F)n1` [Compound 8], 27 nM. Turning to `COC(=O)N[C@H](C)CNc1nccc(-c2cn(C(C)C)nc2-c2cc(Cl)cc(NS(C)(=O)=O)c2F)n1` [Compound 20, methyl N-[(2R)-1-({4-[3-(5-chloro-2-fluoro-3-methanesulfonamidophenyl)-1-(propan-2-yl)-1H-pyrazol-4-yl]pyrimidin-2-yl}amino)propan-2-yl]carbamate], the IC50 came to 7 nM.

On to `COC(=O)N[C@@H](C)CNc1nccc(-c2c[nH]nc2-c2cc(Cl)cc(NS(C)(=O)=O)c2F)n1` [Compound 31], for which the IC50 stood at 180 nM. Consider `CC(C)n1cc(-c2ccnc(NCCC#N)n2)c(-c2cc(Cl)cc(NS(C)(=O)=O)c2F)n1` [Compound 17, N-[5-chloro-3-(4-{2-[(2-cyanoethyl)amino]pyrimidin-4-yl}-1-(propan-2-yl)-1H-pyrazol-3-yl)-2-fluorophenyl]methanesulfonamide], for which the IC50 was determined as 2 nM. As for `COC(=O)N[C@@H](C)CNc1nccc(-c2cn(C(C)C)nc2-c2cc(F)c(F)c(NS(C)(=O)=O)c2F)n1` [Compound 21, methyl N-[(2S)-1-({4-[1-(propan-2-yl)-3-(2,4,5-trifluoro-3-methanesulfonamidophenyl)-1H-pyrazol-4-yl]pyrimidin-2-yl}amino)propan-2-yl]carbamate], the IC50 came out at 45 nM. On the same count and under the same terms, in the case of `COC(=O)N[C@@H](C)CNc1nccc(-c2cn(C(C)C)nc2-c2cccc(NS(C)(=O)=O)c2F)n1` [Compound 4, methyl N-[(2S)-1-({4-[3-(2-fluoro-3-methanesulfonamidophenyl)-1-(propan-2-yl)-1H-pyrazol-4-yl]pyrimidin-2-yl}amino)propan-2-yl]carbamate] it was 33 nM; in that of `COC(=O)N[C@@H](C)CNc1nccc(-c2cn(C(C)C)nc2-c2cc(F)cc(NS(C)(=O)=O)c2Cl)n1` [Compound 15, Methyl N-[(2S)-1-({4-[3-(2-chloro-5-fluoro-3-methanesulfonamidophenyl)-1-(propan-2-yl)-1H-pyrazol-4-yl]pyrimidin-2-yl}amino)propan-2-yl]carbamate], 4 nM; in that of `COC(=O)N[C@@H](C)CNc1nccc(-c2cn(C(C)C)nc2-c2cc(Cl)cc(NS(C)(=O)=O)c2)n1` [Compound 2, methyl N-[(2S)-1-({4-[3-(3-chloro-5-methanesulfonamidophenyl)-1-(propan-2-yl)-1H-pyrazol-4-yl]pyrimidin-2-yl}amino)propan-2-yl]carbamate], 18 nM. Same read-out and setting: as for `COC(=O)N[C@@H](C)CNc1nccc(-c2cn(C(C)C)nc2-c2c(F)ccc(NS(C)(=O)=O)c2F)n1` [Compound 6, methyl N-[(2S)-1-({4-[3-(2,6-difluoro-3-methanesulfonamidophenyl)-1-(propan-2-yl)-1H-pyrazol-4-yl]pyrimidin-2-yl]amino)propan-2-yl]carbamate], the figure is 46 nM; as for `COC(=O)N[C@@H](C)CNc1nccc(-c2cn(C3CCCCO3)nc2-c2cc(Cl)cc(NS(C)(=O)=O)c2F)n1` (stereo partly drawn) [Compound 33, Methyl N-[(2S)-1-({4-(3-(5-chloro-2-fluoro-3-methanesulfonamidophenyl)-1-(oxan-2-yl)-1H-pyrazol-4-yl]pyrimidin-2-yl}amino)propan-2-yl]carbamate], 7 nM. Still for that read-out and setting: in the case of `COC(=O)N[C@@H](C)CNc1nccc(-c2cn(C(C)C)nc2-c2cc(Cl)cc(NS(C)(=O)=O)c2Cl)n1` [Compound 22, methyl N-[(2S)-1-({4-[3-(2,5-dichloro-3-methanesulfonamidophenyl)-1-(propan-2-yl)-1H-pyrazol-4-yl]pyrimidin-2-yl}amino)propan-2-yl]carbamate] it was 6 nM. Regarding `CCCS(=O)(=O)Nc1cc(Cl)cc(-c2nn(C(C)C)cc2-c2ccnc(NC[C@H](C)NC(=O)OC)n2)c1` [Compound 5, methyl N-[(2S)-1-[(4-{3-[3-chloro-5-(propane-1-sulfonamido)phenyl]-1-(propan-2-yl)-1H-pyrazol-4-yl]pyrimidin-2-yl)amino]propan-2-yl]carbamate], the IC50 came out at 1 nM. Regarding `CCCS(=O)(=O)Nc1c(F)ccc(-c2nn(C(C)C)cc2-c2ccnc(NC[C@H](C)NC(=O)OC)n2)c1F` [Compound 34], the half-inhibitory concentration (IC50) turned out to be 13 nM. The same measure, in the same setting: as for `CCS(=O)(=O)Nc1c(F)ccc(-c2nn(C(C)C)cc2-c2ccnc(NC[C@H](C)NC(=O)OC)n2)c1F` [Compound 26, methyl N-[(2S)-1-({4-[3-(3-ethanesulfonamido-2,4-difluorophenyl)-1-(propan-2-yl)-1H-pyrazol-4-yl]pyrimidin-2-yl}amino)propan-2-yl]carbamate], the figure is 14 nM.

Consider `CC(C)n1cc(-c2ccnc(NCCN(C)C)n2)c(-c2cc(Cl)cc(NS(C)(=O)=O)c2F)n1` [Compound 28, N-{5-chloro-3-[4-(2-{[2-(dimethylamino)ethyl]amino}pyrimidin-4-yl)-1-(propan-2-yl)-1H-pyrazol-3-yl]-2-fluorophenyl}methanesulfonamide], for which the IC50 stood at 550 nM. The same measure, in the same setting: as for `COC(=O)N[C@@H](C)CNc1nccc(-c2cn(C(C)C)nc2-c2ccnc(NS(C)(=O)=O)c2Cl)n1` [Compound 14, methyl N-[(2S)-1-({4-[3-(3-chloro-2-methanesulfonamidopyridin-4-yl)-1-(propan-2-yl)-1H-pyrazol-4-yl]pyrimidin-2-yl}amino)propan-2-yl]carbamate], the figure is 79 nM; as for `COC(=O)N[C@@H](C)CNc1nccc(-c2cn(C(C)C)nc2-c2ccnc(NS(C)(=O)=O)c2F)n1` [Compound 16, methyl N-[(2S)-1-({4-[3-(3-fluoro-2-methanesulfonamidopyridin-4-yl)-1-(propan-2-yl)-1H-pyrazol-4-yl]pyrimidin-2-yl}amino)propan-2-yl]carbamate], 1400 nM. For the molecule `CCS(=O)(=O)Nc1c(F)c(F)cc(-c2nn(C(C)C)cc2-c2ccnc(NC[C@H](C)NC(=O)OC)n2)c1Cl` [Compound 18, methyl N-[(2S)-1-({4-[3-(2-chloro-3-ethanesulfonamido-4,5-difluorophenyl)-1-(propan-2-yl)-1H-pyrazol-4-yl]pyrimidin-2-yl}amino)propan-2-yl]carbamate], the IC50 worked out at 12 nM. Still for that read-out and setting: in the case of `CCn1cc(-c2ccnc(NC[C@H](C)NC(=O)OC)n2)c(-c2cc(Cl)cc(NS(C)(=O)=O)c2F)n1` [Compound 11, methyl N-[(2S)-1-({4-[3-(5-chloro-2-fluoro-3-methanesulfonamidophenyl)-1-ethyl-1H-pyrazol-4-yl]pyrimidin-2-yl}amino)propan-2-yl]carbamate] it was 3 nM; in that of `COC(=O)N[C@@H](C)CNc1nccc(-c2cn(C(C)C)nc2-c2ccc(F)c(NS(C)(=O)=O)c2F)n1` [Compound 19, methyl N-[(2S)-1-({4-[3-(2,4-difluoro-3-methanesulfonamidophenyl)-1-(propan-2-yl)-1H-pyrazol-4-yl]pyrimidin-2-yl}amino)propan-2-yl]carbamate], 93 nM.

Test system in a further series: not listed separately
Put plainly: Liver Microsomal Clearance Assay (human). The series is classed as in vitro ADME. Conditions: extraction ratio, human liver microsomes, 1 μM compound. Here is the method:
(§1) The in vitro microsomal clearance assay is designed to assess potential risks associated with hepatic metabolic stability of compounds. The test compound (1 μM) was incubated with liver microsomes (0.5 mg/mL) from different species (mouse, rat, monkey, dog and human) and NADPH (1 mM) in 100 mM potassium phosphate buffer at 37° C. At specific reaction time points (0, 5, 10 and 30 minutes), reaction aliquots were removed and reactions were terminated by addition of ice cold acetonitrile containing mass spectrometry internal standard. The samples were centrifuged and the supernatants were analyzed by LC-MS/MS. In vitro metabolic half-life (t1/2, min) and intrinsic clearance (CLint, μL/min/mg) are based on the rate and extent of metabolism of the test compound as determined by the disappearance of the parent compound from the reaction mixture. These values may be scaled to predict hepatic metabolic clearance rate (CLh, mL/min/kg) and extraction ratio (ER, expressed as a ratio of the predicted hepatic metabolic clearance to hepatic blood flow in that species). In general, compounds with high predictedCLint or ER in vitro are considered to be at high risk for exposure-limiting metabolism in vivo.
For orientation: Liver microsomes are vesicles of endoplasmic reticulum, rich in cytochrome P450 enzymes.
Turning to `COC(=O)N[C@@H](C)CNc1nccc(-c2cn(C(C)C)nc2-c2cccc(NS(C)(=O)=O)c2F)n1` [Compound 4, methyl N-[(2S)-1-({4-[3-(2-fluoro-3-methanesulfonamidophenyl)-1-(propan-2-yl)-1H-pyrazol-4-yl]pyrimidin-2-yl}amino)propan-2-yl]carbamate], the “ER Human” value was below 0.31. The same measure, in the same setting: in the case of `COC(=O)N[C@@H](C)CNc1nccc(-c2cn(C(C)C)nc2-c2c(F)ccc(NS(C)(=O)=O)c2F)n1` [Compound 6, methyl N-[(2S)-1-({4-[3-(2,6-difluoro-3-methanesulfonamidophenyl)-1-(propan-2-yl)-1H-pyrazol-4-yl]pyrimidin-2-yl]amino)propan-2-yl]carbamate] it was 0.69.

Test system in the next series: not listed separately
Put plainly: Liver Microsomal Clearance Assay (mouse). Format: in vitro ADME. Particulars: extraction ratio, mouse liver microsomes, 1 μM compound. The method, then: as §1
In the case of `COC(=O)N[C@@H](C)CNc1nccc(-c2cn(C(C)C)nc2-c2cccc(NS(C)(=O)=O)c2F)n1` [Compound 4, methyl N-[(2S)-1-({4-[3-(2-fluoro-3-methanesulfonamidophenyl)-1-(propan-2-yl)-1H-pyrazol-4-yl]pyrimidin-2-yl}amino)propan-2-yl]carbamate], the “ER Mouse” value was 0.40.

Usually IC50 stands for the concentration at which inhibition is half-maximal.
